{
  "source": "patent US8268807B2",
  "about": "“Compositions and method for the treatment of multiple myeloma” (SRI International, priority 2010, dated 2012)",
  "key": {"[1]": {"tested_on": "RPMI-8226 multiple myeloma cells", "test": "Proliferation of RPMI-8226 multiple myeloma cells", "type": "cell-based, human", "settings": "read-out: IC50 against RPMI-8226 proliferation", "experimental": "Growth inhibition assay was performed to assess the effect of Compound (1) and antiestrogens on growth of RPMI-8226 (multiple myeloma) cells. Cells were seeded in 96-well plates at 2000 cells/well in 200 μL of medium. After 24 hours, test compounds were added to each well and control wells received vehicle only. On Day 3, viable cells were measured with the MTT assay, using an MTT kit.\nThe effect of Compound (1) and analogs thereof on proliferation of RPMI-8226 multiple myeloma cells was determined by standard methods."}, "[2]": {"test": "Activity test of salts of Compound (1) (test not specified)"}, "ER-α": {"target": "T1, ER-α (Homo sapiens, UniProt P03372)", "T1 sequence (P03372 1-595)": "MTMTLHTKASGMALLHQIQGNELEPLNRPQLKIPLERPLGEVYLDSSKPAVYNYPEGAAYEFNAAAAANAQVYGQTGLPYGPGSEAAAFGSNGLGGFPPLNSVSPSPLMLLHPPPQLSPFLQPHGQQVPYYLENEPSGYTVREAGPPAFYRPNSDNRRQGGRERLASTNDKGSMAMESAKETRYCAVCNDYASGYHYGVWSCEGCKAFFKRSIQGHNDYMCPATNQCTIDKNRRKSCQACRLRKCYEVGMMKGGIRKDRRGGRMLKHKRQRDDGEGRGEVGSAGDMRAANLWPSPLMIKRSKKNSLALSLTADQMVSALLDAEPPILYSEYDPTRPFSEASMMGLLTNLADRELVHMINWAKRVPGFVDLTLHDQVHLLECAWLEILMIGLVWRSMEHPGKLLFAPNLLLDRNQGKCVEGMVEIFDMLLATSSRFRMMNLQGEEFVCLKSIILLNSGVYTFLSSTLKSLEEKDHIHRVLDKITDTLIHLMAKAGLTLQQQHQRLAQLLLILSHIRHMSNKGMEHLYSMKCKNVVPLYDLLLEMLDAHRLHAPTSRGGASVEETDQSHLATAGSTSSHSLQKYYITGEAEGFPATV", "test": "Estrogen receptor binding assay (3H-estradiol displacement), ER-α", "settings": "recombinant estrogen receptor, 10 nM 3H-estradiol, 4° C. overnight; read-out: Binding Affinity (IC50) ER-α"}, "ER-β": {"target": "ER-β (Homo sapiens, UniProt Q92731)", "sequence (Q92731 whole entry, species assumed)": "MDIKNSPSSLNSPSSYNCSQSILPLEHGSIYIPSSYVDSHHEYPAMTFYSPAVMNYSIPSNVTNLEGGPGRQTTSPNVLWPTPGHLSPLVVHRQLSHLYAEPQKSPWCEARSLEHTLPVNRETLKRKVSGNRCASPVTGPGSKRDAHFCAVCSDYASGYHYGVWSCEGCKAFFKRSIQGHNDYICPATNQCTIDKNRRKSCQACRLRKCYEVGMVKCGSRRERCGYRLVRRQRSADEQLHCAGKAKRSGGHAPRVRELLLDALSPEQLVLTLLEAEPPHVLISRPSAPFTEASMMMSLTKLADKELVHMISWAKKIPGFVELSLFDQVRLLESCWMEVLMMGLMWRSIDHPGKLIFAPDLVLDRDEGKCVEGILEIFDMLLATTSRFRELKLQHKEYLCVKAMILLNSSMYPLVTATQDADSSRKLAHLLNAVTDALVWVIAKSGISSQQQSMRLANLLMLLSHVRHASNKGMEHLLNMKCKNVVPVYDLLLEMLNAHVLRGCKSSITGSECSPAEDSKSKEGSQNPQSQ", "test": "Estrogen receptor binding assay (3H-estradiol displacement), ER-β", "settings": "recombinant estrogen receptor, 10 nM 3H-estradiol, 4° C. overnight; read-out: Binding Affinity (IC50) ER-β"}},
  "note": "Where two headings read alike, the source gives them in different places.",
  "data": [
    {"smiles": "O=C(c1ccc(OCCN2CCCCC2)cc1)c1c(-c2ccc(O)cc2)sc2cc(O)ccc12", "note": "[Raloxifene, reference compound]", "values": [
      {"measurement": "IC50", "setting": "[1]; Homo sapiens", "result": "> 20", "unit": "µM"}
    ]},
    {"smiles": "C[C@@H]1Cc2cc(O)ccc2[C@H]2CC[C@]3(C)/C(=C/COCCN4CCCCC4)CC[C@H]3[C@H]12", "values": [
      {"measurement": "IC50", "setting": "[1]; Homo sapiens", "result": 15, "unit": "µM"}
    ]},
    {"smiles": "CN(C)CCOCC=C1CCC2C3CCc4cc(O)ccc4C3CCC12C.O=C(O)C=CC(=O)O", "note": "(stereo not drawn) [fumerate salt]", "values": [
      {"measurement": "Activity of salt (data not provided)", "setting": "[2]", "result": "found to have activity"}
    ]},
    {"smiles": "C[C@]12CC[C@@H]3c4ccc(O)cc4C[C@@H](CCCCCCCCC[S+]([O-])CCCC(F)(F)C(F)(F)F)[C@H]3[C@@H]1CC[C@@H]2O", "note": "(stereo partly drawn) [ICI-182780, reference compound]", "values": [
      {"measurement": "IC50", "setting": "[1]; Homo sapiens", "result": "> 20", "unit": "µM"}
    ]},
    {"smiles": "C[C@@H]1Cc2cc(O)ccc2[C@H]2CC[C@]3(C)/C(=C/COC[C@@H](C)N(C)C)CC[C@H]3[C@H]12", "values": [
      {"measurement": "IC50", "setting": "[1]; Homo sapiens", "result": 9.2, "unit": "µM"}
    ]},
    {"smiles": "CN(C)CCOCC=C1CCC2C3CCc4cc(O)ccc4C3CCC12C.Cl", "note": "(stereo not drawn) [chloride salt]", "values": [
      {"measurement": "Activity of salt (data not provided)", "setting": "[2]", "result": "found to have activity"}
    ]},
    {"smiles": "C[C@@H]1Cc2cc(O)ccc2C2CC[C@]3(C)/C(=C/COCCN4CCCC4)CCC3C21", "note": "(stereo partly drawn)", "values": [
      {"measurement": "IC50", "setting": "[1]; Homo sapiens", "result": 6.9, "unit": "µM"}
    ]},
    {"smiles": "C[C@@H]1Cc2cc(O)ccc2[C@H]2CC[C@]3(C)/C(=C/COCCNC4CC4)CC[C@H]3[C@H]12", "values": [
      {"measurement": "IC50", "setting": "[1]; Homo sapiens", "result": 10.2, "unit": "µM"}
    ]},
    {"smiles": "CC/C(=C(\\c1ccc(O)cc1)c1ccc(OCCN(C)C)cc1)c1ccccc1", "note": "[OH-Tamoxifen, reference compound]", "values": [
      {"measurement": "IC50", "setting": "[1]", "result": "> 20", "unit": "µM"}
    ]},
    {"smiles": "C[C@@H]1Cc2cc(O)ccc2[C@H]2CC[C@]3(C)/C(=C/COCCN(C)C)CC[C@H]3[C@H]12", "note": "[Compound (1)]", "values": [
      {"measurement": "IC50", "setting": "[1]; Homo sapiens", "result": 0.8, "unit": "µM"},
      {"measurement": "IC50", "setting": "ER-α", "result": "0.00156 ± 0.00042", "unit": "µM"},
      {"measurement": "IC50", "setting": "ER-β", "result": "0.0867 ± 0.0133", "unit": "µM"}
    ]}
  ]
}
